Data: patent publication EP4778920A1, “INDAZOLONE COMPOUND, PREPARATION METHOD THEREFOR, PHARMACEUTICAL COMPOSITION, AND USE” (Shanghai Institute of Materia Medica, Chinese Academy of …, priority 2023, dated 2025)
Like-named read-outs stand apart in the source and are kept apart here.

How the values were obtained:
[1] = cited from earlier work
MM.1S cells = assay: MM.1S cell proliferation inhibition (MTS assay); assay type: cell-based; conditions: Homo sapiens, MM1.S, 168 h, 7 days incubation, read-out: MM1.S (IC50, Inhibitory Activity of Compounds on MM.1S Cell Proliferation)
Procedure: The cell concentration was diluted according to a 7-day incubation period, and 180 µL of cell suspension was added to each well of a 96-well plate, with 20,000 cells per well. […] The test compounds were prepared from a 10 mM stock solution and serially diluted in a 5-fold gradient, and 20 µL of the diluted solution was added to each compound-treated well (final DMSO concentration also 0.2%). The cells were incubated in a 37 °C, 5% CO2 incubator for 7 days. After incubation, the reaction solution was prepared according to the MTS assay kit instructions (Promega, G5430), and 20 µL was added to each well. The plate was incubated at 37 °C with 5% CO2 for 3-4 hours. The absorbance at 490 nm was measured using a microplate reader, and the absorbance at 690 nm was used as the background value. […] The IC50 values for cell proliferation inhibition were determined using GraphPad Prism 5.0. Each experiment was repeated three times, and three parallel replicates were performed in each experiment to calculate the mean value and standard deviation.
Inhibitory Activity of Compounds on MM.1S Cell Proliferation

Mino cells = assay: Mino cell proliferation inhibition (MTS assay); assay type: cell-based; conditions: Homo sapiens, 72 h, 3 days incubation, read-out: Mino (IC50, Inhibitory Activity of Compounds on Mino Cell Proliferation)
Procedure: The cell concentration was diluted according to a 3-day incubation period, and 90 µL of cell suspension was added to each well of a 96-well plate, resulting in 8,000 cells per well. […] The test compounds were prepared from a 10 mM stock solution and serially diluted in a five-fold gradient. Similarly, 10 µL of the diluted compound solution was added to each compound-treated well (final DMSO concentration 0.2%).
The cells were incubated in a 37 °C, 5% CO2 incubator for 3 days. After incubation, the reaction solution was prepared according to the MTS assay kit instructions (Promega, G5430), and 20 µL was added to each well. The plate was further incubated at 37 °C with 5% CO2 for 3-4 hours. The absorbance at 490 nm was measured using a microplate reader, and the absorbance at 690 nm was used as the background value. The final raw data were calculated as OD490 - OD690. […] The IC50 values for cell proliferation inhibition were determined using GraphPad Prism 5.0. Each experiment was repeated three times, and three parallel replicates were performed in each experiment to calculate the mean value and standard deviation.
Table 2. Inhibitory Activity of Compounds on Mino Cell Proliferation

MV-4-11 cells = assay: MV-4-11 cell proliferation inhibition (MTS assay); assay type: cell-based; conditions: Homo sapiens, MV4-11, 168 h, 7 days incubation, MTS, read-out: MV-411 (IC50, Inhibitory Activity of Compounds on MV-4-11 Cell Proliferation)
Procedure: MV-4-11 cells were cultured in IMDM medium supplemented with 10% fetal bovine serum and collected. The cell concentration was diluted according to a 7-day incubation period, and 180 µL of cell suspension was added to each well of a 96-well plate, resulting in 2,000 cells per well. […] The test compounds were prepared from a 10 mM stock solution and serially diluted in a five-fold gradient, and 20 µL of the diluted compound solution was added to each compound-treated well (final DMSO concentration 0.2%). The cells were incubated in a 37 °C, 5% CO2 incubator for 7 days. After incubation, the reaction solution was prepared according to the MTS assay kit instructions (Promega, G5430), and 20 µL was added to each well. The plate was further incubated at 37 °C with 5% CO2 for 3-4 hours. The absorbance at 490 nm was measured using a microplate reader, and the absorbance at 690 nm was used as the background value. The final raw data were calculated as OD490 - OD690. […] The IC50 values for cell proliferation inhibition were determined using GraphPad Prism 5.0. Each experiment was repeated three times, and three parallel replicates were performed in each experiment to calculate the mean value and standard deviation.
Table 3. Inhibitory Activity of Compounds on MV-4-11 Cell Proliferation

CRBN/DDB1 = CRBN/DDB1 (Homo sapiens, UniProt Q96SW2); assay: CRBN/DDB1 binding TR-FRET assay; conditions: read-out: AVE_Inhibition% (1 µM)
CRBN/DDB1, sequence (Q96SW2 whole entry, species assumed): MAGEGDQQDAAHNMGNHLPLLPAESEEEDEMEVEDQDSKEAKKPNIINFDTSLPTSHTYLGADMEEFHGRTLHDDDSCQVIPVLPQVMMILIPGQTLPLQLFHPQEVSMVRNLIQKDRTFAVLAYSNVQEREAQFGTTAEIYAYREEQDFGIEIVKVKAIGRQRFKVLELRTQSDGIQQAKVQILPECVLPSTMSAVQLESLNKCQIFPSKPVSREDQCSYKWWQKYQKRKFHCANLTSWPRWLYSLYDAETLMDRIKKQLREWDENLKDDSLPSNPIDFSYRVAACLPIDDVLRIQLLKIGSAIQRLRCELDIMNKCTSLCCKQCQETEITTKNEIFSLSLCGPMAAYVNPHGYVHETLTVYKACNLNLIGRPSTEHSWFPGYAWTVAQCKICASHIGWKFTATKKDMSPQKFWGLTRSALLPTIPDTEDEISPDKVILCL
CRBN/DDB1, sequence (Q16531 whole entry partner, species assumed): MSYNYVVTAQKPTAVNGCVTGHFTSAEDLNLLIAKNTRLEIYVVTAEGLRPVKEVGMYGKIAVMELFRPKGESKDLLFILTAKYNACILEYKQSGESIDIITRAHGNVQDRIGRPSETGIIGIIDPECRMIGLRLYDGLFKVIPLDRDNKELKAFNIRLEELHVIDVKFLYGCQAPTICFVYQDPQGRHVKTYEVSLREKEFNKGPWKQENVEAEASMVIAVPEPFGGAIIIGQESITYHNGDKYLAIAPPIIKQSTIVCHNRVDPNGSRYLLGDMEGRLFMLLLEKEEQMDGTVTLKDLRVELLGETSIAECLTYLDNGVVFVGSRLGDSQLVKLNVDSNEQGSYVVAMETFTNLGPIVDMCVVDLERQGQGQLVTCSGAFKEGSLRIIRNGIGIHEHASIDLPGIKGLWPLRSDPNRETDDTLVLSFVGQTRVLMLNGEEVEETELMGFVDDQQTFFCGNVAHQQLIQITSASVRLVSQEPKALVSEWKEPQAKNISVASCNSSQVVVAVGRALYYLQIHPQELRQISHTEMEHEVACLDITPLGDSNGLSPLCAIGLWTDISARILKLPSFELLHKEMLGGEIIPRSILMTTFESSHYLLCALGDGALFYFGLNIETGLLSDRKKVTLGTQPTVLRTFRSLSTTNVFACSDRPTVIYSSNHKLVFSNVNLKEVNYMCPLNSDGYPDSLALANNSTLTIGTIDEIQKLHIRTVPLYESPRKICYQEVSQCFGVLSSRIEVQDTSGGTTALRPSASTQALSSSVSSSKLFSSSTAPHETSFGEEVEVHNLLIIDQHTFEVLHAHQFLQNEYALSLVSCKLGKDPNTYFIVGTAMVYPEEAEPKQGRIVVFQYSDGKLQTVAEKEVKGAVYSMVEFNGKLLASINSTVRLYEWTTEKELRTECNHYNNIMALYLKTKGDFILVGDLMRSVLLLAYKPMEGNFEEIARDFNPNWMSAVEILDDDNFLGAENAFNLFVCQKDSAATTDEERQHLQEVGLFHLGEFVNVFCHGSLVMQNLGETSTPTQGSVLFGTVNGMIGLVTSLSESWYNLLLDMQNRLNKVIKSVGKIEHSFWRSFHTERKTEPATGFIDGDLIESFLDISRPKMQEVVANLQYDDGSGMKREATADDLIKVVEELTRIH
Procedure: • 1. 0.1 µL of the reference solution was added to a 384-well assay plate. The final detection concentration was 100 µM, followed by 3-fold serial dilution for 10 points. • 2. 2.5 µL of CRBN/DDB1 was added to the 384-well plate and centrifuged at 1000 rpm for 1 minute. • 3. 2.5 µL of Thalidomide-BODIPY was added to the plate, centrifuged at 1000 rpm for 1 minute, and incubated at 25 °C for 15 minutes. • 4. 5 µL of His-Tb was added to the plate, centrifuged at 1000 rpm for 1 minute, and incubated at 25 °C for 60 minutes. • 5. The TR-FRET signal was measured using a BMG plate reader with a fluorescence ratio of 520/490 nm.
Table 4. Inhibition Rate of Compounds on CRBN/DDB1 Binding

Row | IC50 (MM.1S cells) | IC50 (MV-4-11 cells) | inhibition at 1 µM (CRBN/DDB1) | Compound | hydrolysis half-life ([1]; pH 7) | hydrolysis half-life ([1]; pH 7.4) | hydrolysis half-life ([1]; pH 8) | IC50 (Mino cells)
1 | < 200 nM | < 200 nM | > 90% | O=C1CCC(n2[nH]c3c(OCc4ccc(CN5CCN(c6ccc(Cl)cc6)CC5)cc4)cc(F)cc3c2=O)C(=O)N1 (stereo not drawn) [Compound D18, 3-(7-((4-((4-(4-chlorophenyl)piperazin-1-yl)methyl)benzyl)oxy)-5-fluoro-3-oxo-1,3-dihydro-2H-indazol-2-yl)piperidine-2,6-dione] |  |  |  | < 200 nM
2 | < 200 nM | < 200 nM | > 90% | O=C1CCC(n2[nH]c3c(OCc4ccc(CN5CCN(c6ccc(F)cc6F)CC5)cc4)cccc3c2=O)C(=O)N1 (stereo not drawn) [Compound D7, 3-(7-((4-((4-(2,4-difluorophenyl)piperazin-1-yl)methyl)benzyl)oxy)-3-oxo-1,3-dihydro-2H-indazol-2-yl)piperidine-2,6-dione] |  |  |  | < 200 nM
3 | < 200 nM | < 200 nM | 50 to 90% | O=C1CCC(n2[nH]c3c(OCc4ccc(CN5CCN(c6ccc(F)cc6F)CC5)cc4)cc(F)cc3c2=O)C(=O)N1 (stereo not drawn) [Compound D15, 3-(7-((4-((4-(2,4-difluorophenyl)piperazin-1-yl)methyl)benzyl)oxy)-5-fluoro-3-oxo-1,3-dihydro-2H-indazol-2-yl)piperidine-2,6-dione] |  |  |  | < 200 nM

Second part, the compound before the results:

Row | Compound | IC50 (MM.1S cells) | IC50 (MV-4-11 cells) | inhibition at 1 µM (CRBN/DDB1) | hydrolysis half-life ([1]; pH 7) | hydrolysis half-life ([1]; pH 7.4) | hydrolysis half-life ([1]; pH 8) | IC50 (Mino cells)
4 | O=C1CCC(N2C(=O)c3ccccc3C2=O)C(=O)N1 (stereo not drawn) [thalidomide] |  |  |  | about 11 hours | ~5 h | ~1.25 h | 
5 | CCn1c2c(OCc3ccc(CN4CCOCC4)cc3)cccc2c(=O)n1C1CCC(=O)NC1=O (stereo not drawn) [Compound D23, 3-(1-Ethyl-7-((4-(morpholinomethyl)benzyl)oxy)-3-oxo-1,3-dihydro-2H-indazol-2-yl)piperidine-2,6-dione] | > 10000 nM | > 20000 nM | < 50% |  |  |  | > 10000 nM
6 | N#Cc1ccc(N2CCN(Cc3ccc(COc4cccc5c(=O)n([C@H]6CCC(=O)NC6=O)[nH]c45)cc3)CC2)c(F)c1 [Compound D2, (S)-4-(4-(4-(((2-(2,6-dioxopiperidin-3-yl)-3-oxo-2,3-dihydro-1H-indazol-7-yl)oxy)methyl)benzyl)piperazin-1-yl)-3-fluorobenzonitrile] | < 200 nM | < 200 nM | > 90% |  |  |  | < 200 nM
7 | O=C1CC[C@H](n2[nH]c3cc(CNC(=O)C(F)(F)c4ccc(Cl)cc4)ccc3c2=O)C(=O)N1 [Compound D44, (S)-2-(4-chlorophenyl)-N-((2-(2,6-dioxopiperidin-3-yl)-3-oxo-2,3-dihydro-1H-indazol-6-yl)methyl)-2,2-difluoroacetamide] | > 10000 nM | 1000 to 20000 nM | < 50% |  |  |  | > 10000 nM
